In patent US9856279B2 (AGIOS PHARMACEUTICALS, INC, priority 2011, dated 2018):

Assays:
IDH1 R132H = IDH1 R132H (Homo sapiens, UniProt O75874, R132H); assay: Assay for IDH1 R132H inhibitors (NADPH/aKG, resazurin detection); format: biochemical; conditions: enzyme assay of Example 12; read-out: IDH1R132H IC50
Summary of the method: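 Read-out is resorufin fluorescence (Ex544/Em590) 5 min after adding a 30 μM resazurin detection mix. Before that, mutant enzyme (0.2 μg/ml in its mix) ran 50 min at room temperature with compound, 8 uM NADPH and 2 mM aKG (mix levels) in Tris pH 7.5 with NaCl, MgCl2, BSA.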

U87MG cells = assay: Cellular assay for IDH1m inhibitors: inhibition of 2-HG production (LC-MS, 48 hours) in U87MG cells; format: cell-based; conditions: Homo sapiens, U-87 MG, inhibition of 2-HG production, U87R132H cells; read-out: U87R132H IC50
Experimental: Cells (e.g., HT1080 or U87MG) and are grown in T125 flasks in DMEM containing 10% FBS, 1× penicillin/streptomycin and 500 ug/mL G418. They are harvested by trypsin and seeded into 96 well white bottom plates at a density of 5000 cell/well in 100 ul/well in DMEM with 10% FBS. No cells are plates in columns 1 and 12. Cells are incubated overnight at 37° C. in 5% CO2. The next day compounds are made up at 2× concentration and 100 ul are added to each cell well. The final concentration of DMSO is 0.2% and the DMSO control wells are plated in row G. The plates are then placed in the incubator for 48 hours. At 48 hours, 100 μl of media is removed from each well and analyzed by LC-MS for 2-HG concentrations. The cell plate is placed back in the incubator for another 24 hours. At 72 hours post compound addition, 10 mL/plate of Promega Cell Titer Glo reagent is thawed and mixed. The cell plate is removed from the incubator and allowed to equilibrate to room temperature. Then 100 ul of reagent is added to each well of media. The cell plate is then placed on an orbital shaker for 10 minutes and then allowed to sit at room temperature for 20 minutes. The plate is then read for luminescence with an integration time of 500 ms.
The IC50 for inhibition of 2-HG production (concentration of test compound to reduce 2HG production by 50% compared to control) in these two cell lines for various compounds of formula I is set forth in Table 4 above.

HT1080 cells = assay: Cellular assay for IDH1m inhibitors: inhibition of 2-HG production (LC-MS, 48 hours) in HT1080 cells; format: cell-based; conditions: Homo sapiens, HT-1080; inhibition of 2-HG production, HT1080 cells; read-out: HT1080 IC50
Summary of the method: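 HT1080 or U87MG cells were seeded at 5000/well in DMEM with 10% FBS, incubated overnight, then treated with compounds (0.2% DMSO final) for 48 h. Medium 2-HG was quantified by LC-MS, and IC50 was taken as the concentration reducing 2-HG by 50% versus DMSO control.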

Sequence of IDH1 R132H (O75874 whole entry R132H): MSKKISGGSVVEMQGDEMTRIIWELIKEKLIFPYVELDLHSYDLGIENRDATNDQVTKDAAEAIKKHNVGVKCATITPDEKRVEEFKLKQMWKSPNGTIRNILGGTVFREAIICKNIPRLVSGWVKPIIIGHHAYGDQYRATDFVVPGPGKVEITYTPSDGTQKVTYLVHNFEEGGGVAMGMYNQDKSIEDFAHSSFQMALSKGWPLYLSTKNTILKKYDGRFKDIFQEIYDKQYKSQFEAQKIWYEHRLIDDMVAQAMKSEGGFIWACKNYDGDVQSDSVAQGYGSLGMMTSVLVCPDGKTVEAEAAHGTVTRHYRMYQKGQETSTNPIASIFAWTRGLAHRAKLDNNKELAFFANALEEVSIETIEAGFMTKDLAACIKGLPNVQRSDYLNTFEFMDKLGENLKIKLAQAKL

Row | SMILES | IC50 (IDH1 R132H) | IC50 (U87MG cells) | IC50 (HT1080 cells)
1 | COCCC(=O)N1CCN(c2nc(C3CC3)c(-c3ccc(OC(F)(F)F)cc3)c(C)c2C#N)C[C@H]1C [Compound 263, (R)-6-cyclopropyl-2-(4-(3-methoxypropanoyl)-3-methylpiperazin-1-yl)-4-methyl-5-(4-(trifluoromethoxy)phenyl)nicotinonitrile] | < 0.5 µM | 1 to 10 µM | 0.5 to 1 µM
2 | COCCC(=O)N1CCN(c2nc(C3CC3)c(-c3ccc(F)cc3F)c(C)c2C#N)C[C@H]1C [Compound 264, 6-cyclopropyl-5-(2,4-difluorophenyl)-2-((R)-4-(3-methoxypropanoyl)-3-methylpiperazin-1-yl)-4-methylnicotinonitrile] | 0.5 to 1 µM | 1 to 10 µM | 1 to 10 µM
3 | COCCC(=O)N1CCN(c2nc(C3CC3)c(-c3cccc(F)c3)c(C)c2C#N)C[C@H]1C [Compound 265, (R)-6-cyclopropyl-5-(3-fluorophenyl)-2-(4-(3-methoxypropanoyl)-3-methylpiperazin-1-yl)-4-methylnicotinonitrile] | < 0.5 µM | 1 to 10 µM | 1 to 10 µM
4 | COCCC(=O)N1CCN(c2nc(C3CC3)c(-c3ccc(C)c(F)c3)c(C)c2C#N)C[C@H]1C [Compound 266, (R)-6-cyclopropyl-5-(3-fluoro-4-methylphenyl)-2-(4-(3-methoxypropanoyl)-3-methylpiperazin-1-yl)-4-methylnicotinonitrile] | < 0.5 µM | 1 to 10 µM | 1 to 10 µM
5 | COCCC(=O)N1CCN(c2nc(C3CC3)c(-c3ccc4ccccc4c3)c(C)c2C#N)C[C@H]1C [Compound 267, (R)-6-cyclopropyl-2-(4-(3-methoxypropanoyl)-3-methylpiperazin-1-yl)-4-methyl-5-(naphthalen-2-yl)nicotinonitrile] | 0.5 to 1 µM | 1 to 10 µM | 1 to 10 µM
6 | COCCC(=O)N1CCN(c2nc(C3CC3)c(-c3ccncc3)c(C)c2C#N)C[C@H]1C [Compound 268, (R)-2-cyclopropyl-6-(4-(3-methoxypropanoyl)-3-methylpiperazin-1-yl)-4-methyl-3,4′-bipyridine-5-carbonitrile] | 0.5 to 1 µM | 1 to 10 µM | 1 to 10 µM
7 | COCCC(=O)N1CCN(c2nc(C3CC3)c(-c3ccc4c(c3)OCO4)c(C)c2C#N)C[C@H]1C [Compound 269, (R)-5-(benzo[d][1,3]dioxol-5-yl)-6-cyclopropyl-2-(4-(3-methoxypropanoyl)-3-methylpiperazin-1-yl)-4-methylnicotinonitrile] | < 0.5 µM | 1 to 10 µM | 1 to 10 µM
8 | COCCC(=O)N1CCN(c2nc(C3CC3)c(-c3ccsc3)c(C)c2C#N)C[C@H]1C [Compound 270, (R)-6-cyclopropyl-2-(4-(3-methoxypropanoyl)-3-methylpiperazin-1-yl)-4-methyl-5-(thiophen-3-yl)nicotinonitrile] | 0.5 to 1 µM | 1 to 10 µM | 1 to 10 µM
9 | COCCC(=O)N1CCN(c2nc(C3CC3)c(-c3ccc(F)c(Cl)c3)c(C)c2C#N)C[C@H]1C [Compound 271, (R)-5-(3-chloro-4-fluorophenyl)-6-cyclopropyl-2-(4-(3-methoxypropanoyl)-3-methylpiperazin-1-yl)-4-methylnicotinonitrile] | < 0.5 µM | 1 to 10 µM | 1 to 10 µM
10 | COCCC(=O)N1CCN(c2nc(C(C)C)c(OCCNC(=O)OCc3ccccc3)cc2C#N)C[C@H]1C [Compound 272, (R)-benzyl 2-(5-cyano-2-isopropyl-6-(4-(3-methoxypropanoyl)-3-methylpiperazin-1-yl)pyridin-3-yloxy)ethylcarbamate] | 0.5 to 1 µM | 1 to 10 µM | 1 to 10 µM
11 | COCCC(=O)N1CCN(c2nc(C3CC3)c(-c3ccccc3C#N)cc2C#N)C[C@H]1C(C)C [Compound 274, (R)-5-(2-cyanophenyl)-6-cyclopropyl-2-(3-isopropyl-4-(3-methoxypropanoyl)piperazin-1-yl)nicotinonitrile] | 0.5 to 1 µM | 1 to 10 µM | 1 to 10 µM
12 | COCCC(=O)N1CCN(c2nc(C3CC3)c(-c3ccccc3OC)cc2C#N)C[C@H]1C(C)C [Compound 275, (R)-6-cyclopropyl-2-(3-isopropyl-4-(3-methoxypropanoyl)piperazin-1-yl)-5-(2-methoxyphenyl)nicotinonitrile] | < 0.5 µM | 1 to 10 µM | 1 to 10 µM
13 | COCCC(=O)N1CCN(c2nc(C3CC3)c(-c3ccccc3OC(F)(F)F)cc2C#N)C[C@H]1C(C)C [Compound 276, (R)-6-cyclopropyl-2-(3-isopropyl-4-(3-methoxypropanoyl)piperazin-1-yl)-5-(2-(trifluoromethoxy)phenyl)nicotinonitrile] | < 0.5 µM | 1 to 10 µM | 1 to 10 µM
14 | COCCC(=O)N1CCN(c2nc(C3CC3)c(OC(C)c3ccccc3)cc2C#N)C[C@H]1C (stereo partly drawn) [Compound 277, 6-cyclopropyl-2-((R)-4-(3-methoxypropanoyl)-3-methylpiperazin-1-yl)-5-(1-phenylethoxy)nicotinonitrile] | < 0.5 µM | 1 to 10 µM | 1 to 10 µM
15 | COCCC(=O)N1CCN(c2nc(C3CC3)c(-c3ccc4cc(OC)ccc4c3)c(C)c2C#N)C[C@H]1C [Compound 278, (R)-6-cyclopropyl-5-(6-methoxynaphthalen-2-yl)-2-(4-(3-methoxypropanoyl)-3-methylpiperazin-1-yl)-4-methylnicotinonitrile] | 0.5 to 1 µM | 1 to 10 µM | 1 to 10 µM
16 | COCCC(=O)N1CCN(c2nc(C3CC3)c(OCc3ccccn3)cc2C#N)C[C@H]1C [Compound 279, (R)-6-cyclopropyl-2-(4-(3-methoxypropanoyl)-3-methylpiperazin-1-yl)-5-(pyridin-2-ylmethoxy)nicotinonitrile] | 0.5 to 1 µM | 1 to 10 µM | 1 to 10 µM
17 | COCCC(=O)N1CCN(c2nc(C3CC3)c(OCc3cccc(OC)c3)cc2C#N)C[C@H]1C [Compound 280, (R)-6-cyclopropyl-5-(3-methoxybenzyloxy)-2-(4-(3-methoxypropanoyl)-3-methylpiperazin-1-yl)nicotinonitrile] | < 0.5 µM | 1 to 10 µM | 1 to 10 µM
18 | C=Cc1cc(-c2cc(C#N)c(N3CCN(C(=O)C4CC4)[C@H](C4CC4)C3)nc2C2CC2)nc(N)n1 [Compound 700, (R)-5-(2-amino-6-vinylpyrimidin-4-yl)-2-(4-(cyclopropanecarbonyl)-3-cyclopropylpiperazin-1-yl)-6-cyclopropylnicotinonitrile] | – | < 0.5 µM | < 0.5 µM
19 | C=Cc1ccnc(Nc2cc(C#N)c(N3CCN(C(=O)CCO)[C@H](C(C)C)C3)nc2C2CC2)c1 [Compound 757, (R)-6-cyclopropyl-2-(4-(3-hydroxypropanoyl)-3-isopropylpiperazin-1-yl)-5-((4-vinylpyridin-2-yl)amino)nicotinonitrile] | < 0.5 µM | < 0.5 µM | –
20 | C=Cc1ccnc(Nc2cc(C#N)c(N3CCN(C(=O)CCOC)[C@H](C(C)C)C3)nc2C2CC2)c1 [Compound 758, (R)-6-cyclopropyl-2-(3-isopropyl-4-(3-methoxypropanoyl)piperazin-1-yl)-5-((4-vinylpyridin-2-yl)amino)nicotinonitrile] | < 0.5 µM | < 0.5 µM | –
21 | C=Cc1cc(-c2cc(C#N)c(N3CCN(C(=O)COC)[C@H](C4CC4)C3)nc2C2CC2)nc(N)n1 [Compound 759, (R)-5-(2-amino-6-vinylpyrimidin-4-yl)-6-cyclopropyl-2-(3-cyclopropyl-4-(2-methoxyacetyl)piperazin-1-yl)nicotinonitrile] | < 0.5 µM | < 0.5 µM | –
22 | C=Cc1cc(-c2c(C3CC3)nc(N3CCN(C(=O)CCO)[C@H](C(C)C)C3)c(C#N)c2C)cnn1 [Compound 773, (R)-6-cyclopropyl-2-(4-(3-hydroxypropanoyl)-3-isopropylpiperazin-1-yl)-4-methyl-5-(6-vinylpyridazin-4-yl)nicotinonitrile] | < 0.5 µM | < 0.5 µM | –
23 | N#Cc1cc(Nc2cc(C#N)c(N3CCN(C(=O)C[C@H]4CCO4)[C@H](C4CC4)C3)nc2C2CC2)ccn1 [Compound 783, 4-(5-cyano-2-cyclopropyl-6-((R)-3-cyclopropyl-4-(2-((R)-oxetan-2-yl)acetyl)piperazin-1-yl)pyridin-3-ylamino)picolinonitrile] | – | < 0.5 µM | < 0.5 µM
